Test results published in US20130316994A1, “Methods of Reducing Risk of Hepatobiliary Dysfunction During Rapid Weight Loss with METAP-2 Inhibitors” (Zafgen, Inc., priority 2010, published 2013).

Test system: alkaline phosphatase
Test: Administration of MetAP2 inhibitor to obese patients: alkaline phosphatase
Assay type: in vivo, human
Conditions: 0.1, 0.3 or 0.9 mg/m^2 administered biweekly for 26 days, versus placebo, FIG. 1
Method: Patients treated with either a placebo, 0.1 mg/m^2 (approximately 0.2 mg per dose) of the MetAP2 inhibitor O-(4-dimethylaminoethoxycinnamoyl)fumagillol, 0.3 mg/m^2 (approximately 0.6 mg per dose), or 0.9 mg/m^2 of calculated body surface area (approximately 1.9 mg per dose) administered biweekly for 26 days. […] This reduction is indicative of a decrease in hepatic injury or hepatobiliary dysfunction, which is consistent with reduced biliary sludging and/or gallstone formation.

`CO[C@@H]1[C@H](OC(=O)C=Cc2ccc(OCCN(C)C)cc2)CC[C@]2(CO2)[C@H]1[C@@]1(C)O[C@@H]1CC=C(C)C` [O-(4-dimethylaminoethoxycinnamoyl)fumagillol] was tested. Which “reduction in alkaline phosphatase” value did it give?
The value was “significant reduction in alkaline phosphatase was observed with increasing MetAP2 inhibitor dosage”.
